Experiment [1] has as its system rabbit serum obtained by immunizing a rabbit with the SARS-CoV strain Frankfurt 1. The class given is binding. Also noted: Binding of a rabbit serum to linear peptides / Binding of a rabbit serum to looped peptides / Rabbit serum linear peptides / Rabbit serum looped peptides / Binding of a rabbit serum to linear peptides of protein N of SARS-CoV Urbani (Rabbit serum linear peptides) / Binding of a rabbit serum to looped/cyclic peptides of protein N of SARS-CoV Urbani (Rabbit serum looped peptides): unit not given here.

The subject of experiment [2] is control sera (pooled serum of ten healthy LUMC hospital workers; commercial negative donor pooled serum from the Dutch bloodbank). The class given is binding, human. Set-up: Binding of Control serum LUMC to linear peptides / Binding of Control serum Blood-bank to linear peptides / Binding of Control serum LUMC to looped peptides / Binding of Control Serum Blood-Bank to Looped peptides / Binding of Control serum LUMC to linear peptides of the protein M of SARS-CoV Urbani / Binding of Control serum Blood-bank to linear peptides of the protein M of SARS-CoV Urbani / Binding of Control serum LUMC to looped peptides of the protein M of SARS-CoV Urbani / Binding of Control Serum Blood-Bank to Looped peptides of the protein M of SARS-CoV Urbani: unit not given here.

In experiment [3] the test system is antibodies in sera from SARS patients (sera 1a, 1b, 2, 6, 37, 62, London, SARS-yellow, SARS-green). The class given is binding, human. Also noted: Binding of serum 6 to linear peptides of protein X1 of SARS-CoV Urbani / Binding of serum 37 to linear peptides of protein X1 of SARS-CoV Urbani / Binding of serum 6 to looped/cyclic peptide (PEPSCAN-ELISA) / Binding of serum 37 to looped/cyclic peptide (PEPSCAN-ELISA) / Binding of serum 37 to looped/cyclic peptides of protein X1 of SARS-CoV Urbani / Binding of serum 6 to linear peptides of protein X2 / Binding of serum 37 to linear peptides of protein X2 / Binding of serum 37 to looped/cyclic peptides of protein X2 of SARS-CoV Urbani / Binding of serum 6 to linear peptides of protein M of SARS-CoV Urbani / Binding of serum 37 to linear peptides of protein M of SARS-CoV Urbani / Binding of serum 6 to looped/cyclic peptides of protein M of SARS-CoV Urbani / Binding of serum 37 to looped/cyclic peptides of protein M of SARS-CoV Urbani / Binding of serum 6 to linear peptides of protein X3 of SARS-CoV Urbani / Binding of serum 37 to linear peptides of protein X3 of SARS-CoV Urbani / Binding of serum 37 to looped/cyclic peptides of protein X3 of SARS-CoV Urbani / Binding of serum 6 to linear peptides of protein X4 of SARS-CoV Urbani / Binding of serum 37 to linear peptides of protein X4 of SARS-CoV Urbani / Binding of serum 37 to looped/cyclic peptides of protein X4 of SARS-CoV Urbani / Binding of serum 6 to linear peptides of protein X5 of SARS-CoV Urbani / Binding of serum 37 to linear peptides of protein X5 of SARS-CoV Urbani / Binding of serum 37 to looped/cyclic peptides of protein X5 of SARS-CoV Urbani / Binding of serum 6 to linear peptides of protein N of SARS-CoV Urbani / Binding of serum 37 to linear peptides of protein N of SARS-CoV Urbani / Binding of serum 6 to linear peptide (PEPSCAN-ELISA) / Binding of serum 1a to looped/cyclic peptides of protein N of SARS-CoV Urbani / Binding of serum 1b to looped/cyclic peptides of protein N of SARS-CoV Urbani / Binding of serum 2 to looped/cyclic peptides of protein N of SARS-CoV Urbani / Binding of serum 6 to looped/cyclic peptides of protein N of SARS-CoV Urbani / Binding of serum 37 to looped/cyclic peptides of protein N of SARS-CoV Urbani / Binding of serum 62 to looped/cyclic peptides of protein N of SARS-CoV Urbani / Binding of serum London to looped/cyclic peptides of protein N of SARS-CoV Urbani / Binding of serum SARS-green to looped/cyclic peptides of protein N of SARS-CoV Urbani: unit not given here.

For FLYIIKLVFLWLLWP, in experiment [1], the “Rabbit serum linear peptides” value is 0.4 and the “Rabbit serum looped peptides” value was found to be 0.4. In experiment [2], the “Binding of Control Serum Blood-Bank to Looped peptides of the protein M of SARS-CoV Urbani” value amounted to 0.8, the “Binding of Control serum Blood-bank to linear peptides of the protein M of SARS-CoV Urbani” value stood at 0.8, the “Binding of Control serum LUMC to linear peptides of the protein M of SARS-CoV Urbani” value is on record as 0.4 and the “Binding of Control serum LUMC to looped peptides of the protein M of SARS-CoV Urbani” value was 0.9. Further, in experiment [3], the “Binding of serum 1a to linear peptides of protein M of SARS-CoV Urbani” value worked out at 0.8, the “Binding of serum 1b to linear peptides of protein M of SARS-CoV Urbani” value is 0.5, the “Binding of serum 2 to linear peptides of protein M of SARS-CoV Urbani” value is listed as 1.0 and the “Binding of serum 6 to linear peptides of protein M of SARS-CoV Urbani” value came out at 0.3. In experiment [3], the “Binding of serum 37 to linear peptides of protein M of SARS-CoV Urbani” value was 0.8, the “Binding of serum 62 to linear peptides of protein M of SARS-CoV Urbani” value is reported as 0.9, the “Binding of serum London to linear peptides of protein M of SARS-CoV Urbani” value stood at 0.3 and the “Binding of serum SARS-green to linear peptides of protein M of SARS-CoV Urbani” value worked out at 0.3. For the same sequence, in experiment [3], the “Binding of serum SARS-yellow to linear peptides of protein M of SARS-CoV Urbani” value is on record as 0.1; the “Recognition of the peptide by sera of SARS-CoV infected individuals, and form (linear, looped/cyclic) in which it is recognized” value is given as “recognized in looped/cyclic form”.
In the case of FLYLYALIYFLQCIN, in experiment [1], the “Binding of a rabbit serum to linear peptides” value is on record as 0.1 and the “Binding of a rabbit serum to looped peptides” value worked out at 0.4. Further, in experiment [2], the “Binding of Control Serum Blood-Bank to Looped peptides” value worked out at 0.5, the “Binding of Control serum Blood-bank to linear peptides” value was determined as 0.5, the “Binding of Control serum LUMC to linear peptides” value is 0.5 and the “Binding of Control serum LUMC to looped peptides” value amounted to 0.4. Moreover, in experiment [3], the “Binding of serum 1a to linear peptides of protein X1 of SARS-CoV Urbani” value stood at 0.7, the “Binding of serum 1a to looped/cyclic peptide (PEPSCAN-ELISA)” value is listed as 0.4, the “Binding of serum 1b to linear peptides of protein X1 of SARS-CoV Urbani” value is on record as 0.5 and the “Binding of serum 1b to looped/cyclic peptide (PEPSCAN-ELISA)” value came to 0.3. Besides, in experiment [3], the “Binding of serum 2 to linear peptides of protein X1 of SARS-CoV Urbani” value is recorded as 0.5, the “Binding of serum 2 to looped/cyclic peptide (PEPSCAN-ELISA)” value came out at 0.3, the “Binding of serum 6 to linear peptides of protein X1 of SARS-CoV Urbani” value amounted to 0.4 and the “Binding of serum 6 to looped/cyclic peptide (PEPSCAN-ELISA)” value turned out to be 0.2. Also, in experiment [3], the “Binding of serum 37 to linear peptides of protein X1 of SARS-CoV Urbani” value was determined as 0.5, the “Binding of serum 37 to looped/cyclic peptide (PEPSCAN-ELISA)” value was 0.4, the “Binding of serum 62 to linear peptides of protein X1 of SARS-CoV Urbani” value was found to be 0.6 and the “Binding of serum 62 to looped/cyclic peptide (PEPSCAN-ELISA)” value is 0.4. Also, in experiment [3], the “Binding of serum London to linear peptides of protein X1 of SARS-CoV Urbani” value worked out at 0.2, the “Binding of serum London to looped/cyclic peptide (PEPSCAN-ELISA)” value is 0.2, the “Binding of serum SARS-green to linear peptides of protein X1 of SARS-CoV Urbani” value was found to be 0.2 and the “Binding of serum SARS-green to looped/cyclic peptide (PEPSCAN-ELISA)” value is recorded as 0.2. In experiment [3], the “Binding of serum SARS-yellow to linear peptides of protein X1 of SARS-CoV Urbani” value is on record as 0.5 and the “Binding of serum SARS-yellow to looped/cyclic peptide (PEPSCAN-ELISA)” value is 0.3.
For FMRFFTLGSITAQPV, in experiment [1], the “Binding of a rabbit serum to linear peptides” value came out at 0.3 and the “Binding of a rabbit serum to looped peptides” value was determined as 0.4. In addition, in experiment [2], the “Binding of Control Serum Blood-Bank to Looped peptides” value came out at 0.6, the “Binding of Control serum Blood-bank to linear peptides” value amounted to 0.7, the “Binding of Control serum LUMC to linear peptides” value is listed as 0.7 and the “Binding of Control serum LUMC to looped peptides” value was found to be 0.6. In experiment [3], the “Binding of serum 1a to linear peptides of protein X1 of SARS-CoV Urbani” value came out at 0.8, the “Binding of serum 1a to looped/cyclic peptide (PEPSCAN-ELISA)” value came out at 0.5, the “Binding of serum 1b to linear peptides of protein X1 of SARS-CoV Urbani” value is reported as 0.6 and the “Binding of serum 1b to looped/cyclic peptide (PEPSCAN-ELISA)” value is 0.3. Further, in experiment [3], the “Binding of serum 2 to linear peptides of protein X1 of SARS-CoV Urbani” value was 0.8, the “Binding of serum 2 to looped/cyclic peptide (PEPSCAN-ELISA)” value was determined as 0.4, the “Binding of serum 6 to linear peptides of protein X1 of SARS-CoV Urbani” value is 0.5 and the “Binding of serum 6 to looped/cyclic peptide (PEPSCAN-ELISA)” value is given as 0.4. Further, in experiment [3], the “Binding of serum 37 to linear peptides of protein X1 of SARS-CoV Urbani” value stood at 0.7, the “Binding of serum 37 to looped/cyclic peptide (PEPSCAN-ELISA)” value is reported as 0.5, the “Binding of serum 62 to linear peptides of protein X1 of SARS-CoV Urbani” value worked out at 0.7 and the “Binding of serum 62 to looped/cyclic peptide (PEPSCAN-ELISA)” value is 0.5. Also, in experiment [3], the “Binding of serum London to linear peptides of protein X1 of SARS-CoV Urbani” value was determined as 0.3, the “Binding of serum London to looped/cyclic peptide (PEPSCAN-ELISA)” value was found to be 0.2, the “Binding of serum SARS-green to linear peptides of protein X1 of SARS-CoV Urbani” value was 0.3 and the “Binding of serum SARS-green to looped/cyclic peptide (PEPSCAN-ELISA)” value worked out at 0.2. Further, in experiment [3], the “Binding of serum SARS-yellow to linear peptides of protein X1 of SARS-CoV Urbani” value amounted to 0.7 and the “Binding of serum SARS-yellow to looped/cyclic peptide (PEPSCAN-ELISA)” value is 0.3.
For the sequence FQFICNLLLLFVTIY, in experiment [1], the “Binding of a rabbit serum to linear peptides” value is 0.9 and the “Binding of a rabbit serum to looped peptides” value is listed as 0.0. In experiment [2], the “Binding of Control Serum Blood-Bank to Looped peptides” value is listed as 0.4, the “Binding of Control serum Blood-bank to linear peptides” value worked out at 0.5, the “Binding of Control serum LUMC to linear peptides” value came out at 0.5 and the “Binding of Control serum LUMC to looped peptides” value was determined as 0.3. Moreover, in experiment [3], the “Binding of serum 1a to linear peptides of protein X1 of SARS-CoV Urbani” value was determined as 0.6, the “Binding of serum 1a to looped/cyclic peptide (PEPSCAN-ELISA)” value is 0.2, the “Binding of serum 1b to linear peptides of protein X1 of SARS-CoV Urbani” value was 0.5 and the “Binding of serum 1b to looped/cyclic peptide (PEPSCAN-ELISA)” value is recorded as 0.0. In addition, in experiment [3], the “Binding of serum 2 to linear peptides of protein X1 of SARS-CoV Urbani” value was found to be 0.5, the “Binding of serum 2 to looped/cyclic peptide (PEPSCAN-ELISA)” value was 0.0, the “Binding of serum 6 to linear peptides of protein X1 of SARS-CoV Urbani” value is listed as 0.3 and the “Binding of serum 6 to looped/cyclic peptide (PEPSCAN-ELISA)” value was found to be 0.2. Besides, in experiment [3], the “Binding of serum 37 to linear peptides of protein X1 of SARS-CoV Urbani” value is 0.5, the “Binding of serum 37 to looped/cyclic peptide (PEPSCAN-ELISA)” value is reported as 0.0, the “Binding of serum 62 to linear peptides of protein X1 of SARS-CoV Urbani” value worked out at 0.5 and the “Binding of serum 62 to looped/cyclic peptide (PEPSCAN-ELISA)” value is reported as 0.2. Further, in experiment [3], the “Binding of serum London to linear peptides of protein X1 of SARS-CoV Urbani” value was found to be 0.2, the “Binding of serum London to looped/cyclic peptide (PEPSCAN-ELISA)” value is on record as 0.1, the “Binding of serum SARS-green to linear peptides of protein X1 of SARS-CoV Urbani” value is reported as 0.1 and the “Binding of serum SARS-green to looped/cyclic peptide (PEPSCAN-ELISA)” value turned out to be 0.4. Besides, in experiment [3], the “Binding of serum SARS-yellow to linear peptides of protein X1 of SARS-CoV Urbani” value turned out to be 0.5 and the “Binding of serum SARS-yellow to looped/cyclic peptide (PEPSCAN-ELISA)” value was found to be 0.0.

For the origin of these results see patent US20070128217A1 (priority 2003, published 2007).
